Data taken from article PMC4929710, “Specificity and mechanism of action of alpha-helical membrane-active peptides interacting with model and biological membranes by single-molecule force spectroscopy” (Scientific Reports, 2016).

Assays:
PC/PG (7:3 w/w) LUVs = assay: Single-molecule force spectroscopy (AFM); format: binding; details: RMS ± SD; N-terminal Cys peptide on AFM tip via PEG linker; prokaryotic model membrane
From the text: (§1) Based on the above results, five selected peptides of V13L, A12L/A20L, V13K, V13E, and L6A/L17A, with different hydrophobicity and charges were used to examine the interaction probabilities and forces between peptides and membranes, both on the lipid model membranes and on the biological membranes by SMFS based on AFM, respectively. A cysteine residue was covalently introduced to the N-terminus of peptides and provided a free sulfhydryl group to modify the tips of the AFM. A PEG linker was used since each heterobifunctional PEG–NHS linker (approximately 20 nm) can only covalently connect with a single peptide molecule, which guarantees a single-molecule interaction between MAPs and biological membranes in real time[19]. If an AFM tip was functionalized with two or more peptides, where several peaks were recorded. In the reports, data with two peaks were not collected and calculated. For one force–distance cycle, one peptide-functionalized AFM tip approached the model and biological membranes right on the top, and the subsequent tip was withdrawn from the cell membranes to retrace the process. […] In addition, blocking experiment was used to test the specificity of these force events. As the electrostatic attraction is one important reason for peptides approaching model membranes and biological membranes, the Tris-HCl buffer including plenty amino groups[20] was injected into the working chamber and inhibits the interactions between MAPs and model membranes/biological membranes. […] The unbinding forces of V13L against different model membranes and biological membranes with the loading rate of 1 × 10^5 pN s^−1 are shown in Fig. 3c,f–h,j–l.
(§2) In accordance with previously described methods, LUVs were prepared with PC/PG (7:3 w/w), PC/Chol (8:1 w/w), and PC/SM/PE/PS/Chol (4.35:4.35:1:0.3:1 w/w) to mimic prokaryotic cell, […], membranes, respectively. Lipids using the freeze-thaw method as described previously, followed by extrusion through […] double-stacked nuclepore filters using an Mini-Extruder (Avanti Polar Lipids, Inc.)[11][27].
(§3) The AFM tip was first washed with concentrated sulfuric acid and hydrogen peroxide (3:1, v:v). The tip was dried using ozone (O3) for 15 min and dried overnight in a dryer. The tip was then modified with APTES under an argon atmosphere and the peptide connected with a PEG–NHS linker. Finally, the AFM tip linked with the peptide was washed three times in PBS and kept at 4 °C. A 500-μL LUV suspension was deposited on Lys coated glass and the LUVs were absorbed on the surface for 1 h at 65 °C [9][29]. A. laidlawii was deposited on poly-L-lysine coated glass and absorbed for 1 h at 37 °C [30]. The 3T3-L1 and HeLa cells were cultured on glass slides in Dulbecco’s modified Eagle’s medium (DMEM). Before performing force spectroscopy experiments, the cells were washed with fresh DMEM three times to remove the cell metabolites. Isolation of chicken erythrocytes was carried out at room temperature. Then the erythrocytes were washed three times in 2 mL PBS buffer by centrifuge (1,000 rpm) and resuspended in PBS buffer. 200 μL erythrocyte suspension were deposited onto poly-L-lysine coated glass for 20 min[10]. The force measurements of MAPs with LUVs mimicking membranes and living cells were performed using the AFM5500 (Agilent Technologies, Chandler, AZ, USA)[19].

[1] = test system: PC/SM/PE/PS/Chol (4.35:4.35:1:0.3:1 w/w) LUVs; assay: Single-molecule force spectroscopy (AFM); format: binding; details: RMS ± SD; N-terminal Cys peptide on AFM tip via PEG linker; cancer cell model membrane
From the text: as §1, §2, §3

PC/Chol (8:1 w/w) LUVs [2] = assay: Single-molecule force spectroscopy (AFM); format: binding; details: RMS ± SD; N-terminal Cys peptide on AFM tip via PEG linker; normal eukaryotic model membrane
From the text: as §1
Lipids using the freeze-thaw method as described previously, followed by extrusion through […] double-stacked nuclepore filters using an Mini-Extruder (Avanti Polar Lipids, Inc.)[11][27].
as §3, with “Then the erythrocytes were washed three times in 2 mL PBS buffer by centrifuge (1,000 rpm) and resuspended in PBS buffer. 200 μL erythrocyte suspension were deposited onto poly-L-lysine coated glass for 20 min[10]. The force measurements of MAPs with LUVs mimicking membranes and living cells were performed using the AFM5500 (Agilent Technologies, Chandler, AZ, USA)[19].” left out

HeLa cells = assay: Single-molecule force spectroscopy (AFM); format: binding, human; details: RMS ± SD; N-terminal Cys peptide on AFM tip via PEG linker
From the text: as §1
as §3, with “The force measurements of MAPs with LUVs mimicking membranes and living cells were performed using the AFM5500 (Agilent Technologies, Chandler, AZ, USA)[19].” left out

PC/Chol (8:1 w/w) LUVs [3] = assay: Tryptophan fluorescence with LUVs; format: binding; details: PC/Chol (8:1 w/w) LUVs versus HEPES buffer, 25 °C
From the text: (§4) In order to investigate the interaction between peptides and difference types of cell membranes, three different LUVs were used to mimic a prokaryotic cell membrane (PC/PG), a normal eukaryotic cell membrane (PC/Chol), and a cancer cell membrane (PC/SM/PE/PS/Chol). Tryptophan residue in the peptide sequence was used as a fluorescent probe to examine the interaction of peptides with model membranes. […] For example, in the PC/PG (7:3 w/w) anionic prokaryotic mimicking model membrane, peptides V13L and A12L/A20L had the strongest hydrophobicity with blue shift values of approximately 37 nm and 38 nm, respectively. Conversely, peptide V13E with a negative charge of glutamic acid residue, and peptide L6A/L17A with the lowest hydrophobicity had blue shift values of approximately 18 nm and 17 nm, respectively. […] In addition, within PC/SM/PE/PS/Chol (4.35:4.35:1:0.3:1 w/w) as a cancer-mimicking model membrane, the same results could be obtained in that peptide hydrophobicity correlates with anticancer activity and the blue shift values of peptides.
as §2
(§5) Three kinds of LUVs were prepared and cultured in HEPES buffer (pH 7.4, 10 mM HEPES, 150 mM NaCl) and the molar concentration was adjusted to 100 μM. A total of 14 μL of 100 μM MAPs was mixed with 686 μL of 100 μM liposomes at 25 °C for 10 min. A Shimadzu RF-5301PC, (excitation wavelength of […], emission wavelength of 300–450 nm) was used to measure the tryptophan fluorescence. Potassium iodide (KI) as a quencher was added to the previous reaction system for a final concentration of 0.02–0.08 M, respectively. The experimental data were plotted according to the Stern–Volmer equation F0/F = 1 + Ksv[Q], where F0 and F are the fluorescence intensity in the absence or presence of a quencher at concentration [Q], respectively, and Ksv is the Stern–Volmer quenching constant.

[4] = test system: PC/SM/PE/PS/Chol (4.35:4.35:1:0.3:1 w/w) LUVs; assay: Tryptophan fluorescence with LUVs; format: binding; details: PC/SM/PE/PS/Chol (4.35:4.35:1:0.3:1 w/w) LUVs versus HEPES buffer, 25 °C
From the text: as §4, §2, §5

Row | Molecule | Unbinding force PC/PG (PC/PG (7:3 w/w) LUVs) | Unbinding force PC/SM/PE/PS/Chol [1] | Unbinding force PC/Chol (PC/Chol (8:1 w/w) LUVs [2]) | Unbinding force HeLa (HeLa cells) | PC/Chol Blue shift (PC/Chol (8:1 w/w) LUVs [3]) | PC/SM/PE/PS/Chol Blueshift [4]
1 | CC[C@H](C)[C@H](NC(=O)[C@H](C)NC(=O)[C@H](CCCCN)NC(=O)[C@H](CC(C)C)NC(=O)[C@H](C)NC(=O)[C@@H](NC(=O)[C@H](Cc1cnc[nH]1)NC(=O)[C@H](CC(C)C)NC(=O)[C@@H](NC(=O)[C@@H](NC(=O)[C@H](CCCCN)NC(=O)[C@H](CCCCN)NC(=O)[C@H](C)NC(=O)[C@H](CO)NC(=O)[C@H](CCCCN)NC(=O)[C@H](Cc1ccccc1)NC(=O)[C@@H](NC(=O)[C@H](CCCCN)NC(=O)[C@H](CC(C)C)NC(=O)[C@H](Cc1ccccc1)NC(=O)[C@H](CO)NC(=O)[C@H](CCCCN)NC(=O)[C@H](Cc1c[nH]c2ccccc12)NC(=O)[C@H](CCCCN)NC(C)=O)[C@@H](C)O)[C@@H](C)O)C(C)C)[C@@H](C)O)C(=O)N[C@@H](CO)C(=O)N[C@@H](CO)C(N)=O [Peptide V13K] | 135 ± 36 pN | 128 ± 51 pN | 101 ± 37 pN | 52 ± 20 pN | 4 nm | 27 nm
2 | Ac-KWKSFAKTFKSAKKTVAHTALKAISS-NH2 [L6A/L17A] | 132 ± 41 pN | 130 ± 36 pN | 100 ± 34 pN | 39 ± 11 pN | 0 nm | 21 nm
3 | Ac-KWKSFLKTFKSAEKTVLHTALKAISS-NH2 [Peptide V13E] | 111 ± 37 pN | 92 ± 34 pN | 89 ± 34 pN | 36 ± 14 pN | 1 nm | 23 nm
4 | Ac-KWKSFLKTFKSALKTVLHTALKAISS-NH2 [Peptide V13L] | 127 ± 34 pN | 124 ± 40 pN | 98 ± 30 pN | 31 ± 10 pN | 11 nm | –
